According to patent US10206394B2, “Herbicidal compounds” (Syngenta Participations AG, priority 2014, dated 2019):
Like-named read-outs stand apart in the source and are kept apart here.

Key:
Assay in all cases: Glasshouse assay for herbicidal activity (pre- and post-emergence), percentage phytotoxicity
Format in all cases: in vivo
[1] = tested on: Alopecurus myosuroides (ALOMY); settings: Alopecurus myosuroides
In short: (§1)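 Pot-grown, standard soil. PRE: spray 1 d post-sowing; POST: ~12 d. Glasshouse 24/18 °C (warm spp.) / 20/16 °C (cool spp.), 16 h light, 65% RH, watered 2×/day. Visual % damage, 20 DAA PRE, 15 DAA POST.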

Avena fatua (AVEFA) = settings: Avena fatua
In short: as §1

[2] = tested on: Echinochloa crus-galli (ECHCG); settings: Echinochloa crus-galli
In short: as §1

Lolium perenne (LOLPE) = settings: Lolium perenne
In short: as §1

[3] = post-emergence, 360 h, POST-emergence, rate 250 g/ha, visual score 15 DAA (100%=total damage, 0%=no damage), read-out: Post-emergence herbicidal activity (percentage phytotoxicity) ALOMY POST
[4] = pre-emergence, 480 h, PRE-emergence, rate 250 g/ha, visual score 20 DAA (100%=total damage, 0%=no damage), read-out: Pre-emergence herbicidal activity (percentage phytotoxicity) ALOMY PRE
[5] = post-emergence, 360 h, POST-emergence, rate 250 g/ha, visual score 15 DAA (100%=total damage, 0%=no damage), read-out: Post-emergence herbicidal activity (percentage phytotoxicity) AVEFA POST
[6] = pre-emergence, 480 h, PRE-emergence, rate 250 g/ha, visual score 20 DAA (100%=total damage, 0%=no damage), read-out: Pre-emergence herbicidal activity (percentage phytotoxicity) AVEFA PRE
[7] = post-emergence, 360 h, POST-emergence, rate 250 g/ha, visual score 15 DAA (100%=total damage, 0%=no damage), read-out: Post-emergence herbicidal activity (percentage phytotoxicity) ECHCG POST
[8] = pre-emergence, 480 h, PRE-emergence, rate 250 g/ha, visual score 20 DAA (100%=total damage, 0%=no damage), read-out: Pre-emergence herbicidal activity (percentage phytotoxicity) ECHCG PRE
[9] = post-emergence, 360 h, POST-emergence, rate 250 g/ha, visual score 15 DAA (100%=total damage, 0%=no damage), read-out: Post-emergence herbicidal activity (percentage phytotoxicity) LOLPE POST
[10] = pre-emergence, 480 h, PRE-emergence, rate 250 g/ha, visual score 20 DAA (100%=total damage, 0%=no damage), read-out: Pre-emergence herbicidal activity (percentage phytotoxicity) LOLPE PRE

Cc1cc(-c2cc(Cl)ccn2)cc(C)c1C1C(=O)CC(CC(=O)NCc2cccc(C(F)(F)F)c2)C1=O (stereo not drawn) [Compound A154]
pest or weed control at 250 g/ha ([1]; post-emergence, 360 h, Rate 250 g/ha, post-emergence, assessed visually 15 DAA, 100%=total damage, 0%=no damage, read-out: Post-emergence herbicidal activity (percentage phytotoxicity) ALOMY POST): 80% | pest or weed control at 250 g/ha ([1]; pre-emergence, 480 h, Rate 250 g/ha, pre-emergence, assessed visually 20 DAA, 100%=total damage, 0%=no damage, read-out: Pre-emergence herbicidal activity (percentage phytotoxicity) ALOMY PRE): 50% | pest or weed control at 250 g/ha (Avena fatua (AVEFA); post-emergence, 360 h, Rate 250 g/ha, post-emergence, assessed visually 15 DAA, 100%=total damage, 0%=no damage, read-out: Post-emergence herbicidal activity (percentage phytotoxicity) AVEFA POST): 90% | pest or weed control at 250 g/ha (Avena fatua (AVEFA); pre-emergence, 480 h, Rate 250 g/ha, pre-emergence, assessed visually 20 DAA, 100%=total damage, 0%=no damage, read-out: Pre-emergence herbicidal activity (percentage phytotoxicity) AVEFA PRE): 60% | pest or weed control at 250 g/ha ([2]; post-emergence, 360 h, Rate 250 g/ha, post-emergence, assessed visually 15 DAA, 100%=total damage, 0%=no damage, read-out: Post-emergence herbicidal activity (percentage phytotoxicity) ECHCG POST): 100% | pest or weed control at 250 g/ha ([2]; pre-emergence, 480 h, Rate 250 g/ha, pre-emergence, assessed visually 20 DAA, 100%=total damage, 0%=no damage, read-out: Pre-emergence herbicidal activity (percentage phytotoxicity) ECHCG PRE): 80% | pest or weed control at 250 g/ha (Lolium perenne (LOLPE); post-emergence, 360 h, Rate 250 g/ha, post-emergence, assessed visually 15 DAA, 100%=total damage, 0%=no damage, read-out: Post-emergence herbicidal activity (percentage phytotoxicity) LOLPE POST): 70% | pest or weed control at 250 g/ha (Lolium perenne (LOLPE); pre-emergence, 480 h, Rate 250 g/ha, pre-emergence, assessed visually 20 DAA, 100%=total damage, 0%=no damage, read-out: Pre-emergence herbicidal activity (percentage phytotoxicity) LOLPE PRE): 80%

CCc1cc(C)cc(C)c1C1C(=O)CC(CC(=O)NC(C)(C)C)C1=O (stereo not drawn) [Compound B170]
pest or weed control at 250 g/ha [1, 3]: 100% | pest or weed control at 250 g/ha [1, 4]: 100% | pest or weed control at 250 g/ha (Avena fatua (AVEFA); [5]): 90% | pest or weed control at 250 g/ha (Avena fatua (AVEFA); [6]): 90% | pest or weed control at 250 g/ha [2, 7]: 100% | pest or weed control at 250 g/ha [2, 8]: 100% | pest or weed control at 250 g/ha (Lolium perenne (LOLPE); [9]): 100% | pest or weed control at 250 g/ha (Lolium perenne (LOLPE); [10]): 100%

Cc1cc(-c2nccs2)cc(C)c1C1C(=O)CC(CC(=O)NC(C)(C)C)C1=O (stereo not drawn) [Compound A186]
pest or weed control at 250 g/ha ([1]; post-emergence, 360 h, post-emergence, 250 g/ha, 15 DAA, visual score (100%=total damage; 0%=no damage), read-out: ALOMY POST herbicidal activity (percentage phytotoxicity)): 40% | pest or weed control at 250 g/ha ([1]; pre-emergence, 480 h, pre-emergence, 250 g/ha, 20 DAA, visual score (100%=total damage; 0%=no damage), read-out: ALOMY PRE herbicidal activity (percentage phytotoxicity)): 40% | pest or weed control at 250 g/ha (Avena fatua (AVEFA); post-emergence, 360 h, post-emergence, 250 g/ha, 15 DAA, visual score (100%=total damage; 0%=no damage), read-out: AVEFA POST herbicidal activity (percentage phytotoxicity)): 30% | pest or weed control at 250 g/ha (Avena fatua (AVEFA); pre-emergence, 480 h, pre-emergence, 250 g/ha, 20 DAA, visual score (100%=total damage; 0%=no damage), read-out: AVEFA PRE herbicidal activity (percentage phytotoxicity)): 0% | pest or weed control at 250 g/ha ([2]; post-emergence, 360 h, post-emergence, 250 g/ha, 15 DAA, visual score (100%=total damage; 0%=no damage), read-out: ECHCG POST herbicidal activity (percentage phytotoxicity)): 80% | pest or weed control at 250 g/ha ([2]; pre-emergence, 480 h, pre-emergence, 250 g/ha, 20 DAA, visual score (100%=total damage; 0%=no damage), read-out: ECHCG PRE herbicidal activity (percentage phytotoxicity)): 70% | pest or weed control at 250 g/ha (Lolium perenne (LOLPE); post-emergence, 360 h, post-emergence, 250 g/ha, 15 DAA, visual score (100%=total damage; 0%=no damage), read-out: LOLPE POST herbicidal activity (percentage phytotoxicity)): 60% | pest or weed control at 250 g/ha (Lolium perenne (LOLPE); pre-emergence, 480 h, pre-emergence, 250 g/ha, 20 DAA, visual score (100%=total damage; 0%=no damage), read-out: LOLPE PRE herbicidal activity (percentage phytotoxicity)): 60%

Cc1cc(-c2ncc(F)cc2F)cc(C)c1C1C(=O)CC(CC(=O)N(C)C)C1=O (stereo not drawn) [Compound B265]
pest or weed control at 250 g/ha [1, 3]: 100% | pest or weed control at 250 g/ha [1, 4]: 100% | pest or weed control at 250 g/ha (Avena fatua (AVEFA); [5]): 100% | pest or weed control at 250 g/ha (Avena fatua (AVEFA); [6]): 100% | pest or weed control at 250 g/ha [2, 7]: 100% | pest or weed control at 250 g/ha [2, 8]: 100% | pest or weed control at 250 g/ha (Lolium perenne (LOLPE); [9]): 100% | pest or weed control at 250 g/ha (Lolium perenne (LOLPE); [10]): 100%

C=CCNC(=O)CC1CC(=O)C(c2c(C)cc(C)cc2CC)C1=O (stereo not drawn) [Compound B256]
pest or weed control at 250 g/ha [1, 3]: 100% | pest or weed control at 250 g/ha [1, 4]: 100% | pest or weed control at 250 g/ha (Avena fatua (AVEFA); [5]): 100% | pest or weed control at 250 g/ha (Avena fatua (AVEFA); [6]): 100% | pest or weed control at 250 g/ha [2, 7]: 100% | pest or weed control at 250 g/ha [2, 8]: 100% | pest or weed control at 250 g/ha (Lolium perenne (LOLPE); [9]): 100% | pest or weed control at 250 g/ha (Lolium perenne (LOLPE); [10]): 100%

C#CC(C)(COC)NC(=O)CC1CC(=O)C(c2c(C)cc(C)cc2C)C1=O (stereo not drawn) [Compound B55]
pest or weed control at 250 g/ha ([1]; post-emergence, 360 h, 250 g/ha, post-emergence, 15 DAA, visual assessment (100%=total damage, 0%=no damage), read-out: Post-emergence herbicidal activity (percentage phytotoxicity) ALOMY POST): 80% | pest or weed control at 250 g/ha ([1]; pre-emergence, 480 h, 250 g/ha, pre-emergence, 20 DAA, visual assessment (100%=total damage, 0%=no damage), read-out: Pre-emergence herbicidal activity (percentage phytotoxicity) ALOMY PRE): 80% | pest or weed control at 250 g/ha (Avena fatua (AVEFA); post-emergence, 360 h, 250 g/ha, post-emergence, 15 DAA, visual assessment (100%=total damage, 0%=no damage), read-out: Post-emergence herbicidal activity (percentage phytotoxicity) AVEFA POST): 60% | pest or weed control at 250 g/ha (Avena fatua (AVEFA); pre-emergence, 480 h, 250 g/ha, pre-emergence, 20 DAA, visual assessment (100%=total damage, 0%=no damage), read-out: Pre-emergence herbicidal activity (percentage phytotoxicity) AVEFA PRE): 30% | pest or weed control at 250 g/ha ([2]; post-emergence, 360 h, 250 g/ha, post-emergence, 15 DAA, visual assessment (100%=total damage, 0%=no damage), read-out: Post-emergence herbicidal activity (percentage phytotoxicity) ECHCG POST): 60% | pest or weed control at 250 g/ha ([2]; pre-emergence, 480 h, 250 g/ha, pre-emergence, 20 DAA, visual assessment (100%=total damage, 0%=no damage), read-out: Pre-emergence herbicidal activity (percentage phytotoxicity) ECHCG PRE): 50% | pest or weed control at 250 g/ha (Lolium perenne (LOLPE); post-emergence, 360 h, 250 g/ha, post-emergence, 15 DAA, visual assessment (100%=total damage, 0%=no damage), read-out: Post-emergence herbicidal activity (percentage phytotoxicity) LOLPE POST): 70% | pest or weed control at 250 g/ha (Lolium perenne (LOLPE); pre-emergence, 480 h, 250 g/ha, pre-emergence, 20 DAA, visual assessment (100%=total damage, 0%=no damage), read-out: Pre-emergence herbicidal activity (percentage phytotoxicity) LOLPE PRE): 70%
